Consider seven molecules from ChEMBL document CHEMBL4433268, “Rational design of a SHP-2 targeted, fluorogenic peptide substrate” (Bioorg Med Chem Lett, 2019).

Active and inactive are the calls of the source. The calls are words filed in the database; no cut-off is given here. Non-standard residues stand in square brackets, D forms with d. Residues, ends and D or L forms follow the SMILES beside them. Ala(7-OPO3H2-coumarin-4-yl) = N[C@@H](Cc1cc(=O)oc2cc(OP(=O)(O)O)ccc12)C(=O)O

For test [1], the target named is T1, Tyrosine-protein phosphatase non-receptor type 11 (Homo sapiens) (UniProt Q06124).
T1 sequence (whole entry): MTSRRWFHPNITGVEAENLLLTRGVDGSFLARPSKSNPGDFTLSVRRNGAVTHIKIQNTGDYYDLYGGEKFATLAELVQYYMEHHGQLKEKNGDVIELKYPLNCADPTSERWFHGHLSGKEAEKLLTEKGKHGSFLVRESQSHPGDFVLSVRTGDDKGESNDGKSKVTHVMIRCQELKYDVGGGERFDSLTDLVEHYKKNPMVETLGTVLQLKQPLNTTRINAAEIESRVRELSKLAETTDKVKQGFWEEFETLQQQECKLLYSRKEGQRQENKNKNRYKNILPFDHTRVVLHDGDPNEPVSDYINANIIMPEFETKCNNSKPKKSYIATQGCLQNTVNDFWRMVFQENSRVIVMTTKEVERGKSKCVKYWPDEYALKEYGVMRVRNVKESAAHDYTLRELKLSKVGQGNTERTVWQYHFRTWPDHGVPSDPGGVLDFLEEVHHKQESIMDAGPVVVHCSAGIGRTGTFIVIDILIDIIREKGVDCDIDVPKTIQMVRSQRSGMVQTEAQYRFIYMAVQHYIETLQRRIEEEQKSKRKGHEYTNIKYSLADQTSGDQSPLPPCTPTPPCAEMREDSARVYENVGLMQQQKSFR
The test can be described thus: Substrate activity at SHP2 (unknown origin) expressed in Escherichia coli BL21 (DE3) incubated for 60 mins by fluorescence based assay.

Test [2] addresses Receptor-type tyrosine-protein phosphatase mu (Homo sapiens) (UniProt P28827). The experiment in a line: Substrate activity at PTPmu (unknown origin) expressed in Escherichia coli BL21 (DE3) incubated for 60 mins by fluorescence based assay.
The target in test [3] is T2, Tyrosine-protein phosphatase non-receptor type 22 (Homo sapiens) (UniProt Q9Y2R2).
T2 sequence (whole entry): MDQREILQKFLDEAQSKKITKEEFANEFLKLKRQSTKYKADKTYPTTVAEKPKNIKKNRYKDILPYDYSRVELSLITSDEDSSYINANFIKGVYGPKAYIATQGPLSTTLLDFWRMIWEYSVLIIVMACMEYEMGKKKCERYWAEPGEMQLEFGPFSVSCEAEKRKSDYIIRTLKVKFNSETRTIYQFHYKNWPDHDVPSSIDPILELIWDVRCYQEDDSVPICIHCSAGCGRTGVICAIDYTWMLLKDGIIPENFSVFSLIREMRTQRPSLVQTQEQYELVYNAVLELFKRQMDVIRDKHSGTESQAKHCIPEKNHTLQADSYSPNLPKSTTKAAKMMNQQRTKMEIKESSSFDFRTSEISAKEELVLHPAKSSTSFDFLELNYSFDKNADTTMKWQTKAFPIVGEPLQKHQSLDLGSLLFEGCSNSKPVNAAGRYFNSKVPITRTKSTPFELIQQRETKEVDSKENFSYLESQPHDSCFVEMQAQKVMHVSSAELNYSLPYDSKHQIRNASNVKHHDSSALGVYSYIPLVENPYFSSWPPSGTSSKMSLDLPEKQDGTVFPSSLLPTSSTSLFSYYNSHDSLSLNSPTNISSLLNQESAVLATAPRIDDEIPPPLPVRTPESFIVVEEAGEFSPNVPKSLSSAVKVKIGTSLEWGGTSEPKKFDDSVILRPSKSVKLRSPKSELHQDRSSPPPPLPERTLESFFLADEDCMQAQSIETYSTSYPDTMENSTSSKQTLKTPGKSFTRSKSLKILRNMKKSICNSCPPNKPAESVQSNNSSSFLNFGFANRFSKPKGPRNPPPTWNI
The experiment in a line: Substrate activity at LYP (unknown origin) expressed in Escherichia coli BL21 (DE3) incubated for 60 mins by fluorescence based assay.

The target in test [4] is T3, Tyrosine-protein phosphatase non-receptor type 7 (Homo sapiens) (UniProt P35236).
T3 sequence (whole entry): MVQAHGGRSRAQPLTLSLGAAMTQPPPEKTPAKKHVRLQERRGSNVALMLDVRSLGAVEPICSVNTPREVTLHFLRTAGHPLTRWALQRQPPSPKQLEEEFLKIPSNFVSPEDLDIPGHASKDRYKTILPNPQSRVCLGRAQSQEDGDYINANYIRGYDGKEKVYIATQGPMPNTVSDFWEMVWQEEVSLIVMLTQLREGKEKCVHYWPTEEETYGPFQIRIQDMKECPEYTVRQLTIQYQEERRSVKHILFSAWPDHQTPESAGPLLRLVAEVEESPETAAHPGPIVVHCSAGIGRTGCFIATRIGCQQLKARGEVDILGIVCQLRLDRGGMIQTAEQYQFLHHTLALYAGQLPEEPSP
The test can be described thus: Substrate activity at HEPTP (unknown origin) expressed in Escherichia coli BL21 (DE3) incubated for 60 mins by fluorescence based assay.

In test [5] the target is T4, Tyrosine-protein phosphatase non-receptor type 4 (Homo sapiens) (UniProt P29074).
T4 sequence (whole entry): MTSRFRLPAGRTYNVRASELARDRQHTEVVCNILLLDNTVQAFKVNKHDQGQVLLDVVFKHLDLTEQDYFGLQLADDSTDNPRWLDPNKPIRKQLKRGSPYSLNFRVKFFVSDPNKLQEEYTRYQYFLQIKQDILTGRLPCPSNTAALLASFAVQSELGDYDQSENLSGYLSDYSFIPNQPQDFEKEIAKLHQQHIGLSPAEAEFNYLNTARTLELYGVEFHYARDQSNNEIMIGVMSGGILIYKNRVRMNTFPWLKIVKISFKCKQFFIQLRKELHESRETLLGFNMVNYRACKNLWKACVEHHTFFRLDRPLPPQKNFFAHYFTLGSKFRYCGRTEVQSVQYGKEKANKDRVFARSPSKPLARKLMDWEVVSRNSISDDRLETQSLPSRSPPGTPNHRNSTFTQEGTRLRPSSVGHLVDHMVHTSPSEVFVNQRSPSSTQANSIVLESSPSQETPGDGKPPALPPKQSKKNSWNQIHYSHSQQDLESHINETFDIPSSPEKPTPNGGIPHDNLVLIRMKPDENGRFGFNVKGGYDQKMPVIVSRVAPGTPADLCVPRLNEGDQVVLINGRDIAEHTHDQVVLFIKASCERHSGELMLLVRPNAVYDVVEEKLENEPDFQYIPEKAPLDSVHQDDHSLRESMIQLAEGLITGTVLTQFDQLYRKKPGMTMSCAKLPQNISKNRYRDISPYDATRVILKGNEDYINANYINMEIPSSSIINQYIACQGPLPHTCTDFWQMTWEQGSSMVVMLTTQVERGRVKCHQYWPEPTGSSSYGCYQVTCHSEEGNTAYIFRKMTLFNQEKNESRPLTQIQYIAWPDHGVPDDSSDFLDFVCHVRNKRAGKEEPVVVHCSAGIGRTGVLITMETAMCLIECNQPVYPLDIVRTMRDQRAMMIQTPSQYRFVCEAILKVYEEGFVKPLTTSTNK
The test can be described thus: Substrate activity at MEG1 (unknown origin) expressed in Escherichia coli BL21 (DE3) incubated for 60 mins by fluorescence based assay.

Chain of Receptor-type tyrosine-protein phosphatase mu (Homo sapiens) (P28827 whole entry): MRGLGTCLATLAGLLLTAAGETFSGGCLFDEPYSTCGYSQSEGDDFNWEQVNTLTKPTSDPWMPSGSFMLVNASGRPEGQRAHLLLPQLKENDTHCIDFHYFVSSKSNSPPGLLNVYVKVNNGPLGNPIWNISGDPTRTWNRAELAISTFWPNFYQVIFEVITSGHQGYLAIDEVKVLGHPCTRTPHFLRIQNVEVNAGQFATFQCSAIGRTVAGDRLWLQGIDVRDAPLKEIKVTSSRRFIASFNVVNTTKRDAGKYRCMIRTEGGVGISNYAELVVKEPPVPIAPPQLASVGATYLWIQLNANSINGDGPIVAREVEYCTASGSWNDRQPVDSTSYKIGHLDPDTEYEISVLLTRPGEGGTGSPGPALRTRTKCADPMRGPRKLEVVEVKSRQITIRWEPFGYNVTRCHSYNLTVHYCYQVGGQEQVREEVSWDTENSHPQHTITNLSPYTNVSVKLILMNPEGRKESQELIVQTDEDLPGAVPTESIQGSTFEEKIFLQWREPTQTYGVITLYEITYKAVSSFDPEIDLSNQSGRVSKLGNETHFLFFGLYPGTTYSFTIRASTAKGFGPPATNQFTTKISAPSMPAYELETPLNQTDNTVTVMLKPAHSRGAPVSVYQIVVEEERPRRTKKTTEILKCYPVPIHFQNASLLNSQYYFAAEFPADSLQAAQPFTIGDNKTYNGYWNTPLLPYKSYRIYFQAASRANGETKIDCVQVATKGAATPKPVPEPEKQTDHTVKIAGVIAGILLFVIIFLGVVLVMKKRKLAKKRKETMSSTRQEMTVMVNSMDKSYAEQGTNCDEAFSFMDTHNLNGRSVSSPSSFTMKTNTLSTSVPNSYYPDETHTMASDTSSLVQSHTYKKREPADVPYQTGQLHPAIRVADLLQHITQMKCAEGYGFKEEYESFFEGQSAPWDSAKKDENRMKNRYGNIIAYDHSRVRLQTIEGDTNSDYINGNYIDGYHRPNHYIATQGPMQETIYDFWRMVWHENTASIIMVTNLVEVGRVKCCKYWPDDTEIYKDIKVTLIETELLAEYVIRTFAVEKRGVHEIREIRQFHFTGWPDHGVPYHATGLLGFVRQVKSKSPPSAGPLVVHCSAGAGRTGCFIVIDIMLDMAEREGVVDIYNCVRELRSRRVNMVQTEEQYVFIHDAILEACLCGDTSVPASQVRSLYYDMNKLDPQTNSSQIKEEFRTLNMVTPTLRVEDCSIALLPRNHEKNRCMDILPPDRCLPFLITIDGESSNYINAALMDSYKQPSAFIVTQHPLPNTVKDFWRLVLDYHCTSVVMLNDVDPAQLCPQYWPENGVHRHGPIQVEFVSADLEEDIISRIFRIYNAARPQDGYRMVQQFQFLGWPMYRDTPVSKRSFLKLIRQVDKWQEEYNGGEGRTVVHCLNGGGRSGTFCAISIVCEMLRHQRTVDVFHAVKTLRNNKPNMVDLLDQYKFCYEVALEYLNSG

Consider `CC[C@H](C)[C@H](NC(=O)[C@@H](NC(=O)[C@H](CC(=O)O)NC(=O)[C@H](CC(=O)O)NC(C)=O)[C@@H](C)O)C(=O)N[C@@H](Cc1cc(=O)oc2cc(OP(=O)(O)O)ccc12)C(=O)N[C@H](C(=O)N[C@H](C(=O)N[C@@H](CC(C)C)C(=O)N[C@@H](CC(=O)O)C(N)=O)C(C)C)C(C)C` (Ac-DDTI[Ala(7-OPO3H2-coumarin-4-yl)]VVLD-NH2), for which the outcome in test [1], in test [3], in test [4] and in test [5] was Active. For the same molecule, the outcome in test [2] was inactive.
For the molecule `CC[C@H](C)[C@H](NC(=O)[C@@H](NC(=O)[C@H](CO)NC(=O)[C@H](CC(=O)O)NC(C)=O)[C@@H](C)O)C(=O)N[C@@H](Cc1cc(=O)oc2cc(OP(=O)(O)O)ccc12)C(=O)N[C@H](C(=O)N[C@H](C(=O)N[C@@H](CC(C)C)C(=O)N[C@@H](CC(=O)O)C(N)=O)C(C)C)C(C)C` (Ac-DSTI[Ala(7-OPO3H2-coumarin-4-yl)]VVLD-NH2), the outcome in test [1] was Active. Besides, the result in test [2] was inactive.
With `CC[C@H](C)[C@H](NC(=O)[C@@H](NC(=O)[C@H](CC(=O)O)NC(=O)[C@H](CC(=O)O)NC(C)=O)[C@@H](C)O)C(=O)N[C@@H](Cc1cc(=O)oc2cc(OP(=O)(O)O)ccc12)C(=O)N[C@@H](CC(=O)O)C(=O)N[C@H](C(=O)N[C@@H](CC(C)C)C(=O)N[C@@H](CC(=O)O)C(N)=O)C(C)C` (Ac-DDTI[Ala(7-OPO3H2-coumarin-4-yl)]DVLD-NH2), the result in test [1] and in test [3] was Active. The result in test [2], in test [4] and in test [5] was inactive.
With `CC[C@H](C)[C@H](NC(=O)[C@@H](NC(=O)[C@H](CC(=O)O)NC(=O)[C@H](CC(=O)O)NC(C)=O)[C@@H](C)O)C(=O)N[C@@H](Cc1cc(=O)oc2cc(OP(=O)(O)O)ccc12)C(=O)N[C@H](C(=O)N[C@H](C(=O)N[C@@H](CC(C)C)C(=O)N[C@@H](CC(=O)O)C(N)=O)C(C)C)[C@@H](C)O` (Ac-DDTI[Ala(7-OPO3H2-coumarin-4-yl)]TVLD-NH2), the result in test [1] was Active. Also, the result in test [2] was inactive.
In the same order, the values of `CC[C@H](C)[C@H](NC(=O)[C@@H](NC(=O)[C@@H]1CCCN1C(=O)[C@H](CC(=O)O)NC(C)=O)[C@@H](C)O)C(=O)N[C@@H](Cc1cc(=O)oc2cc(OP(=O)(O)O)ccc12)C(=O)N1CCC[C@H]1C(=O)N[C@H](C(=O)N[C@@H](CC(C)C)C(=O)N[C@@H](CC(=O)O)C(N)=O)C(C)C` (Ac-DPTI[Ala(7-OPO3H2-coumarin-4-yl)]PVLD-NH2) are “Active” and “inactive”.
In the same order, the values of `CC[C@H](C)[C@H](NC(=O)[C@@H](NC(=O)[C@H](CO)NC(=O)[C@H](CC(=O)O)NC(C)=O)[C@@H](C)O)C(=O)N[C@@H](Cc1cc(=O)oc2cc(OP(=O)(O)O)ccc12)C(=O)N[C@H](C(=O)N[C@H](C(=O)N[C@@H](CC(C)C)C(=O)N[C@@H](CC(=O)O)C(N)=O)C(C)C)[C@@H](C)O` (Ac-DSTI[Ala(7-OPO3H2-coumarin-4-yl)]TVLD-NH2) are “Active” and “inactive”.
For `CC[C@H](C)[C@H](NC(=O)[C@@H](NC(=O)[C@H](CO)NC(=O)[C@H](CC(=O)O)NC(C)=O)[C@@H](C)O)C(=O)N[C@@H](Cc1cc(=O)oc2cc(OP(=O)(O)O)ccc12)C(=O)N[C@@H](CC(=O)O)C(=O)N[C@H](C(=O)N[C@@H](CC(C)C)C(=O)N[C@@H](CC(=O)O)C(N)=O)C(C)C` (Ac-DSTI[Ala(7-OPO3H2-coumarin-4-yl)]DVLD-NH2) the same measures were “Active” and “inactive”.
